The text below walks through data of BindingDB's records for doi:10.1016/s0960-894x(02)00682-0 (Bristol-Myers Squibb Pharmaceutical Research Institute, 2002).

SMILES strings stand for the structures. Peptide text beside a SMILES is read from it. * marks the point of attachment. X11 = CCCCCC[C@H](N*)B1O[C@@H]2C[C@@H]3C[C@@H](C3(C)C)[C@]2(C)O1; X14 = CCCC[C@H](N*)B1O[C@@H]2C[C@@H]3C[C@@H](C3(C)C)[C@]2(C)O1

The target of the first assay is T1, Chymotrypsin-C (Homo sapiens, UniProt Q99895).
T1 sequence (Q99895 whole entry): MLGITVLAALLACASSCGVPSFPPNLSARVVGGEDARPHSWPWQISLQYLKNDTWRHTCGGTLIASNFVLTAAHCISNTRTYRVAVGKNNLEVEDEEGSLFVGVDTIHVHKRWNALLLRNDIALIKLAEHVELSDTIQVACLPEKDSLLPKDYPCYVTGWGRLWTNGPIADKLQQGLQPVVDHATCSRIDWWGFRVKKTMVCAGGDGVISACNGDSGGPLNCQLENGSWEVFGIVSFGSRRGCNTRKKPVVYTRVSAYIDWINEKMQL
Kind of assay: ChEBML_197808. From the text: (§1) Inhibitory concentration against Human pancreatic Serine protease chymotrypsin
In turn, `CC(C)[C@H](NC(=O)[C@H](CCC(=O)O)NC(=O)[C@@H](N)CC(=O)O)C(=O)N[C@H](C(=O)N1CCC[C@H]1C(=O)N[C@@H](CCc1ccc(-c2ccccc2)cc1)B1O[C@@H]2C[C@@H]3C[C@@H](C3(C)C)[C@]2(C)O1)C(C)C` [Peptide Boronic Acid analogue] showed an IC50 of 48 µM.

Target in another assay: not listed separately
The assay can be described thus: Inhibitory concentration against Human pancreatic Serine protease chymotrypsin.
`CC(C)c1ccc(CC[C@H](NC(=O)[C@@H]2CCCN2C(=O)[C@@H](NC(=O)[C@@H](NC(=O)[C@H](CCC(=O)O)NC(=O)[C@@H](N)CC(=O)O)C(C)C)C(C)C)B2O[C@@H]3C[C@@H]4C[C@@H](C4(C)C)[C@]3(C)O2)cc1` [Peptide Boronic Acid analogue] gave an IC50 of over 60 µM. On the same count and under the same terms, then `CC(C)[C@H](NC(=O)[C@H](CCC(=O)O)NC(=O)[C@@H](N)CC(=O)O)C(=O)N[C@H](C(=O)N1CCC[C@H]1C(=O)N[C@@H](CCc1ccc(Oc2ccccc2)cc1)B1O[C@@H]2C[C@@H]3C[C@@H](C3(C)C)[C@]2(C)O1)C(C)C` [Peptide Boronic Acid analogue], with over 60 µM; and `CC(C)[C@H](NC(=O)[C@H](CCC(=O)O)NC(=O)[C@@H](N)CC(=O)O)C(=O)N[C@H](C(=O)N1CCC[C@H]1C(=O)N[C@@H](CCc1ccc(C(C)(C)C)cc1)B1O[C@@H]2C[C@@H]3C[C@@H](C3(C)C)[C@]2(C)O1)C(C)C` [Peptide Boronic Acid analogue], with over 60 µM. Same read-out and setting: the figure for `CC(C)[C@H](NC(=O)[C@H](CCC(=O)O)NC(=O)[C@@H](N)CC(=O)O)C(=O)N[C@H](C(=O)N1CCC[C@H]1C(=O)N[C@@H](CCc1ccc(C2CCCCC2)cc1)B1O[C@@H]2C[C@@H]3C[C@@H](C3(C)C)[C@]2(C)O1)C(C)C` [Peptide Boronic Acid analogue] is over 60 µM; for `COc1ccc(CC[C@H](NC(=O)[C@@H]2CCCN2C(=O)[C@@H](NC(=O)[C@@H](NC(=O)[C@H](CCC(=O)O)NC(=O)[C@@H](N)CC(=O)O)C(C)C)C(C)C)B2O[C@@H]3C[C@@H]4C[C@@H](C4(C)C)[C@]3(C)O2)cc1` [Peptide Boronic Acid analogue] it is 20 µM.

The target of the next assay is T1, Chymotrypsin-C. The assay is described as §1.
As for `CC(C)[C@H](NC(=O)[C@H](CCC(=O)O)NC(=O)[C@@H](N)CC(=O)O)C(=O)N[C@H](C(=O)N1CCC[C@H]1C(=O)N[C@@H](CCc1ccc(C(F)(F)F)cc1)B1O[C@@H]2C[C@@H]3C[C@@H](C3(C)C)[C@]2(C)O1)C(C)C` [Peptide Boronic Acid analogue], the concentration for half-maximal inhibition (IC50) turned out to be 16 µM. Still for that read-out and setting: then `CC(C)[C@H](NC(=O)[C@H](CCC(=O)O)NC(=O)[C@@H](N)CC(=O)O)C(=O)N[C@H](C(=O)N1CCC[C@H]1C(=O)N[C@@H](CCCCc1ccccc1)B1O[C@@H]2C[C@@H]3C[C@@H](C3(C)C)[C@]2(C)O1)C(C)C` [Peptide Boronic Acid analogue], with 1.9 µM; and `CCCCCC[C@H](NC(=O)[C@@H]1CCCN1C(=O)[C@@H](NC(=O)[C@@H](NC(=O)[C@H](CCC(=O)O)NC(=O)[C@@H](N)CC(=O)O)C(C)C)C(C)C)B1O[C@@H]2C[C@@H]3C[C@@H](C3(C)C)[C@]2(C)O1` [Peptide Boronic Acid analogue] (H-DEVVP-X11), with 0.42 µM. Same read-out and setting: the figure for `CC[C@H](NC(=O)[C@@H]1CCCN1C(=O)[C@@H](NC(=O)[C@@H](NC(=O)[C@H](CCC(=O)O)NC(=O)[C@@H](N)CC(=O)O)C(C)C)C(C)C)B1O[C@@H]2C[C@@H]3C[C@@H](C3(C)C)[C@]2(C)O1` [Peptide Boronic Acid analogue] is over 60 µM; for `Cc1ccc(CC[C@H](NC(=O)[C@@H]2CCCN2C(=O)[C@@H](NC(=O)[C@@H](NC(=O)[C@H](CCC(=O)O)NC(=O)[C@@H](N)CC(=O)O)C(C)C)C(C)C)B2O[C@@H]3C[C@@H]4C[C@@H](C4(C)C)[C@]3(C)O2)cc1` [Peptide Boronic Acid analogue] it is 3.7 µM. Take `CCCC[C@H](NC(=O)[C@@H]1CCCN1C(=O)[C@@H](NC(=O)[C@@H](NC(=O)[C@H](CCC(=O)O)NC(=O)[C@@H](N)CC(=O)O)C(C)C)C(C)C)B1O[C@@H]2C[C@@H]3C[C@@H](C3(C)C)[C@]2(C)O1` [Peptide Boronic Acid analogue] (H-DEVVP-X14): the midpoint of inhibition, the IC50, lay at 2.1 µM.
